Reference: publication PMC12040169 (PLOS Biology, 2025)

test: in vitro; conditions: human, hela cells, % viability

Structure (SMILES) | viability at 28.5 h, 10 µM [%]
Cc1cc(C(F)(F)F)n2ncc(C(=O)N3CCCC3c3ccco3)c2n1 (stereo not drawn) [CBK306557] | 93.5
OC1(CN2CCCC2)COCCN(c2nnc(-c3ccccc3)s2)C1 (stereo not drawn) [CBK306558] | 97.5
N#Cc1ccnc(N2CCC3(CCCN(CC4CCCCC4)C3=O)C2)c1 (stereo not drawn) [CBK306561] | 96.9
CCn1c(=O)oc2cc(NC(=O)NCCN3CCCCC3CO)ccc21 (stereo not drawn) [CBK306565] | 107
CC(=O)Nc1ccc(CNC(=O)CN(C)CC2CCCCO2)cc1 (stereo not drawn) [CBK306567] | 89.6
CCCn1cnnc1C(C)NS(=O)(=O)c1cccc(C(=O)N2CCC2)c1 (stereo not drawn) [CBK306569] | 103
CC(C)c1cc(C(=O)N2CC(N3CCOCC3)C2)nc2ncnn12 [CBK306572] | 86.9
OC1CC(c2cc(NCCc3nc4ccccc4o3)ncn2)C1 (stereo not drawn) [CBK306573] | 99.9
Cc1cc(C(=O)NCc2cccnc2N(C)C2CCCCC2)nn1C [CBK306577] | 69.6
Cc1cccc(OCC2CCCN(C(=O)C3(Cn4cccn4)CC3)C2)c1 (stereo not drawn) [CBK306578] | 102
CC(C)c1cc(C(=O)N(Cc2ccccn2)CC2CCCO2)on1 (stereo not drawn) [CBK306579] | 95.3
Cc1cc(CN(C)c2nccc(N3CCN[C@H]4CS(=O)(=O)C[C@H]43)n2)no1 [CBK306580] | 109
COc1cccc2ncn(CCNS(C)(=O)=O)c(=O)c12 [CBK306583] | 81
Cc1oc2c(c1C(=O)NCCSc1nncn1C)C(=O)CCC2 [CBK306589] | 92.5
O=C(O)C1(Oc2ccc3ncccc3c2)CCN(C2CCCCC2)CC1 [CBK306591] | 92.4
Cn1nnnc1SCCNC(=O)Nc1cccc(N2CCOC2=O)c1 [CBK306593] | 84.4
CC(Cn1cncn1)NS(=O)(=O)c1cccc(C(=O)N2CCCCC2)c1 (stereo not drawn) [CBK306594] | 86.7
CCC(O)Cn1nc(CCSC)nc1-c1cc(=O)n(C)c2ccccc12 (stereo not drawn) [CBK306596] | 83.6
CCCN1CC(NS(=O)(=O)c2ccnn2CCC)CC1=O (stereo not drawn) [CBK306598] | 92.9
CCc1nn2c(=O)cc(CN3C(=O)COc4cccnc43)nc2s1 [CBK306599] | 88.9
CC(C)Cn1cncc1CN1C(=O)CC2(CCCC2)CC1=O [CBK306600] | 116
CCOCC1CCCN1C(=O)Nc1ccc2sc(C(=O)N(C)C)cc2c1 (stereo not drawn) [CBK306601] | 98.3
CCc1ccccc1-c1cccc(C(=O)NCC(O)CN(C)C)c1 (stereo not drawn) [CBK306604] | 92.9

Structure (SMILES) | viability at 28.5 h, 10 µM [%]
COCCN(C)C(=O)c1cn2cc(-c3cc(C)oc3C)n(C)c(=O)c2n1 [CBK306605] | 80.5
CNc1cc(C(=O)N[C@@H]2CCOC[C@H]2Oc2ccc(CO)cc2)ccn1 [CBK306606] | 98.1
CCc1csc(CCNc2ccc(-c3nc(C4CC4)no3)cn2)n1 [CBK306608] | 91.3
CCCNC(=O)c1ccc(C)c(NC(=O)N[C@@H](CO)c2ccccc2)c1 [CBK306609] | 96.2
Cc1nc(CCCn2cnc3cnccc3c2=O)sc1C [CBK306610] | 102
O=C(Cc1cn2ccsc2n1)NCCCN1CCCc2ccccc21 [CBK306611] | 101
CCCn1ncc(CN2CCC3(CC2)CC(C(=O)O)N(C(C)=O)C3)c1C (stereo not drawn) [CBK306612] | 86.7
COc1nccc(N2CCN(C(=O)C3CC3)CC(O)C2)c1C#N (stereo not drawn) [CBK306613] | 79.1
CCCCSc1nc(N)cc(N2CCC(C(=O)N3CCOCC3)CC2)n1 [CBK306619] | 96.8
CN(C)C(=O)CC(O)c1cc2n(n1)CCN(Cc1cccs1)C2 (stereo not drawn) [CBK306620] | 113
COc1ccc2c(c1)cc(C(=O)NCCN1CCCCC1CO)n2C (stereo not drawn) [CBK306621] | 114
CN(CCC1CCOCC1)c1nc2c(c(=O)[nH]1)Cc1ccccc1OC2 [CBK306622] | 96.2
Cc1nc(N2CCN(C)CC2)ncc1C(=O)NCCSc1cnn[nH]1 [CBK306623] | 88.2
CCOCCC(=O)NC1CCCc2nc(N3CCC(CO)CC3)ncc21 (stereo not drawn) [CBK306624] | 92.8
Cc1nc(CC(=O)Nc2nn(C)c3cccc(N4CCOCC4)c23)cs1 [CBK306627] | 89.7
Cc1ccn2cc(CNC(=O)CCC(C)N3CCN(C)CC3)nc2c1 (stereo not drawn) [CBK306628] | 97.2
NC1CC(c2cc(NCc3cn4ccccc4n3)ncn2)C1 (stereo not drawn) [CBK306631] | 112
CCCn1nc(COc2cccc(F)c2)nc1C1CCN(C(C)=O)CC1 [CBK306637] | 97.7
CO[C@@]12CC[C@H](OCC(=O)O)C[C@@H]1N(Cc1c(C)cnn1C)CC2 [CBK306638] | 95.6
COc1ccnc(N2CCN(C(=O)c3cccc4c3NCCC4)CC2)n1 [CBK306639] | 109
Cc1cc(=O)n(CC(=O)NC(Cc2ccncc2)[C@H]2C[C@H](O)C2)nc1C (stereo partly drawn) [CBK306641] | 101
COc1cncc(C(NC(=O)Cc2cn3ccsc3n2)[C@H]2C[C@H](O)C2)c1 (stereo partly drawn) [CBK306642] | 97.2
CC(=O)c1cccc(-c2nc(CC3CCN(C)CC3)nn2CCO)c1 [CBK306645] | 98.3

Structure (SMILES) | viability at 28.5 h, 10 µM [%]
CN(C)S(=O)(=O)NC1CC(C)(C)Cc2c1cnn2-c1ccc(F)cc1 (stereo not drawn) [CBK306646] | 112
CCCCC1C(=O)N(C)CCN1C(=O)NCc1cn2ccc(C)cc2n1 (stereo not drawn) [CBK306648] | 91.8
COCCn1ccnc1C1CCN(C(=O)Cc2ccc(O)c(F)c2)CC1 [CBK306649] | 82.6
COc1cccc2ncn(CCCn3ccnn3)c(=O)c12 [CBK306650] | 103
COCCN(Cc1cnn(C)c1)C(=O)c1cc(=O)c2cccc(F)c2[nH]1 [CBK306651] | 83.8
CCc1nccn1CCC(=O)NC1CCCN(Cc2ccccc2F)C1 (stereo not drawn) [CBK306652] | 78.9
CC(C)(O)C1CCCN(C(=O)c2cc(COc3cccc(F)c3)[nH]n2)C1 (stereo not drawn) [CBK306653] | 99.9
CCN(CC)CCCNc1nccc(-c2cn(C)nc2C)n1 [CBK306654] | 97.4
CCc1nccn1CCCNC(=O)Nc1cc(-c2cccnc2)nn1C [CBK306657] | 88.3
CCN(CCc1nc2cc(OC)ccc2[nH]1)C(=O)c1cc(C#N)cn1C [CBK306658] | 90.5
COCC(=O)Nc1ccc(Cl)c(NC(=O)NCCN2CCCC2=O)c1 [CBK306663] | 87.9
COCCn1c(CO)nnc1[C@H]1C[C@H](NC(=O)c2ccc(F)cc2F)C1 [CBK306665] | 102
Cc1c(CN2CCC3(CC2)CC(c2ccccc2)CN(C)C3)cnn1C (stereo not drawn) [CBK306666] | 105
Cn1c(CO)nnc1[C@H]1C[C@@H](NC(=O)COc2ccc(Cl)c(Cl)c2)C1 [CBK306667] | 101
Cc1cc(C(=O)NCc2cccnc2N(C)C2CCCCC2)[nH]n1 [CBK306668] | 104
Cc1ccn2c(C(=O)N(C)CCc3noc(C(C)C)n3)nnc2n1 [CBK306670] | 89.3
CN(C)C(=O)CCNC(=O)c1ccc2c(c1)nc(N1CC[C@H](O)C1)n2C [CBK306671] | 92.4
COc1ccnc(Cn2ncc(N3CCCC3)cc2=O)c1OC [CBK306672] | 82.7
Cc1nc(N(C)C)ncc1C(=O)NCCSc1nnnn1C [CBK306673] | 93.1
COCC1(C(=O)N2CC(=O)N(c3ccc(Cl)cc3)CC2C)CCC1 (stereo not drawn) [CBK306674] | 89.2
CCCn1ccnc1-c1cn(CCc2cc(O)nc(C)n2)nn1 [CBK306675] | 114
Cc1c(Cl)c(C(=O)N[C@@H]2CCN(Cc3ccccn3)C[C@H]2O)nn1C [CBK306676] | 96
Cc1noc(C)c1C(=O)N(C)Cc1cc(-c2ccncc2)no1 [CBK306677] | 102

Structure (SMILES) | viability at 28.5 h, 10 µM [%]
CCc1cc(C(=O)NC(CCn2ccnc2)c2ccccc2)cc(=O)[nH]1 (stereo not drawn) [CBK306679] | 114
CCN(Cc1cn2ccc(C)cc2n1)CC1CCOCC1 [CBK306680] | 89.7
CC(=O)c1[nH]c(C)c(C(=O)N(C)Cc2cc(-c3ccncc3)no2)c1C [CBK306681] | 97
CCCCn1nc(C2CC2)nc1-c1cnn2cc(C)cnc12 [CBK306683] | 89.6
Cc1ccccc1-c1noc(C(C)NC(=O)C2(Cn3ccnc3)CC2)n1 (stereo not drawn) [CBK306684] | 99.7
Cc1nc2cc(OCc3nc(C(=O)N(C)CCN(C)C)co3)ccc2s1 [CBK306685] | 106
COc1cncc(C(NC(=O)c2ccn3nnnc3c2)[C@H]2C[C@@H](O)C2)c1 (stereo partly drawn) [CBK306686] | 96.2
NC(=O)c1c(F)cccc1-c1cc(NCCO)nc2[nH]ccc12 [CBK306689] | 112
CCCOCCN1CCN(C(=O)c2nn3cc(C)cnc3c2Cl)CC1 [CBK306690] | 95.6
CCCn1ccnc1CN1CCC2(CC1)CC(C(=O)O)N(C(C)=O)C2 (stereo not drawn) [CBK306691] | 92.9
Cc1ccc(OCC(=O)NCC2CCN(c3cnn(C)c(=O)c3)C2)cc1 (stereo not drawn) [CBK306693] | 83.6
CCCS(=O)(=O)N1CCC2(CCCN(Cc3cccc(F)c3F)C2=O)C1 (stereo not drawn) [CBK306694] | 90.8
CCOC(=O)c1cn(CC2(CO)CCC2)cc(Oc2ccccc2)c1=O [CBK306698] | 97.2
CCn1cc(C(=O)N2CCC(Oc3ccccc3C)(C(=O)O)CC2)cn1 [CBK306699] | 118
COCCCn1cnnc1C(C)NC(=O)N(C)Cc1nccs1 (stereo not drawn) [CBK306702] | 111
COc1ccc2[nH]nc(CN3CCCC(c4cc(O)nc(C)n4)C3)c2c1 (stereo not drawn) [CBK306703] | 87.6
Cc1cc(C)c(C(=O)NC2CCN(c3ncccc3C#N)CC2)c(=O)[nH]1 [CBK306709] | 110
CN(C)C(=O)c1cc2cc(NC(=O)CC3COCCN3)ccc2s1 (stereo not drawn) [CBK306710] | 105
COc1cc(C)c(-c2nc(C)nc(C)c2C)c(C)c1 [CBK306711] | 90.5
Cc1nc(O)cc(CCn2cc(-c3cncnc3)nn2)n1 [CBK306712] | 96.2
Cc1cc(N2CCCC(COc3ccccc3F)C2)nc(N)n1 (stereo not drawn) [CBK306714] | 74.4
